# Columns and labels:
# Lymnaea [1] = test: Inhibition of acetylcholinesterase from nerve tissue of Lymnaea acuminata at 0.23 ug w/v relative to control; design: scale not given: the % may be the effect or the level left
# Lymnaea [2] = test: In vivo inhibition of acetylcholinesterase from nerve tissue of Lymnaea acuminata at 14 mg/L relative to control; type: functional; design: scale not given: the % may be the effect or the level left
# Lymnaea [3] = test: Inhibition of acetylcholinesterase from nerve tissue of Lymnaea acuminata at 2 ug w/v relative to control; design: scale not given: the % may be the effect or the level left
# Lymnaea [4] = test: In vivo inhibition of acetylcholinesterase from nerve tissue of Lymnaea acuminata at 27 mg/L relative to control; type: functional; design: scale not given: the % may be the effect or the level left
# Lymnaea [5] = test: Inhibition of acetylcholinesterase from nerve tissue of Lymnaea acuminata at 0.75 ug w/v relative to control; design: scale not given: the % may be the effect or the level left
# Lymnaea [6] = test: In vivo inhibition of acetylcholinesterase from nerve tissue of Lymnaea acuminata at 2.5 mg/L relative to control; type: functional; design: scale not given: the % may be the effect or the level left
# Lymnaea [7] = test: Inhibition of acetylcholinesterase from nerve tissue of Lymnaea acuminata at 1 ug w/v relative to control; design: scale not given: the % may be the effect or the level left
# Lymnaea [8] = test: Molluscicidal activity against Lymnaea acuminata within 24 hrs; type: functional
# Lymnaea [9] = test: In vivo inhibition of acetylcholinesterase from nerve tissue of Lymnaea acuminata at 30 mg/l relative to control; type: functional; design: scale not given: the % may be the effect or the level left
# Lymnaea [10] = test: Inhibition of acetylcholinesterase from nerve tissue of Lymnaea acuminata at 0.5 ug w/v relative to control; design: scale not given: the % may be the effect or the level left
smiles,measurement,setting,value
CNC(=O)Oc1ccc2c(c1)[C@]1(C)CCN(C)[C@@H]1N2C,Activity,Lymnaea [1],13%
CNC(=O)Oc1cccc2ccccc12 [CARBARIL],Activity,Lymnaea [2],73%
same,Activity,Lymnaea [3],67%
COP(=S)(OC)SCC(=O)N(C)C=O [FORMOTHION],Activity,Lymnaea [4],79%
same,Activity,Lymnaea [5],47%
CNC(=O)Oc1cc(C)c(N(C)C)c(C)c1 [MEXACARBATE],Activity,Lymnaea [6],53%
same,Activity,Lymnaea [7],39%
O=C(Nc1ccc([N+](=O)[O-])cc1Cl)c1cc(Cl)ccc1O [NICLOSAMIDE],Activity,Lymnaea [8],63%
CCOP(=S)(OCC)SCSCC [PHORATE],Activity,Lymnaea [9],67%
same,Activity,Lymnaea [10],42%
